The values below come from ChEMBL document CHEMBL1914392, “Comparative studies on interactions of baicalein, baicalin and scutellarin with lysozyme” (2011).

Converted amounts (≈) assume the structure as drawn. The source made the active and inactive calls. The rule behind the calls is not given here.

By MIC50 is commonly meant an inhibitory concentration at the 50% level, which refers to growth in some studies and to a panel of isolates in others.

The species named for experiment [1] is Gallus gallus. Put plainly: Binding affinity to hen egg white lysozyme assessed as Stem-Volmer dynamic quenching constant at 310 K by Stern-Volmer plot analysis.
The species entered for experiment [2] is Gallus gallus. Put plainly: Binding affinity to hen egg white lysozyme assessed as quenching rate constant at 310 K by Stern-Volmer plot analysis.
The species named for experiment [3] is Gallus gallus. Put plainly: Binding affinity to hen egg white lysozyme assessed as quenching rate constant at 298 K by Stern-Volmer plot analysis.
For experiment [4], the species on record is Gallus gallus. Put plainly: Binding affinity to hen egg white lysozyme assessed as effective quenching constant at 310 K by Lineweaver-Burk plot analysis.
The species entered for experiment [5] is Gallus gallus. Nature of the experiment: Binding affinity to hen egg white lysozyme assessed as Stem-Volmer dynamic quenching constant at 298 K by Stern-Volmer plot analysis.
The species named for experiment [6] is Gallus gallus. Put plainly: Binding affinity to hen egg white lysozyme assessed as effective quenching constant at 298 K by Lineweaver-Burk plot analysis.
The species entered for experiment [7] is Gallus gallus. Put plainly: Binding affinity to hen egg white lysozyme in presence of 2 x10'-3 M.
Experiment [8] is filed under the species Gallus gallus. Put plainly: Binding affinity to hen egg white lysozyme assessed as reduction in fluorescence intensity at 1 to 7 x 10^-6 M at 310 K.
For experiment [9], the system named is Staphylococcus aureus. Put plainly: Antibacterial activity against Staphylococcus aureus in presence of 25 mg/L lysozyme. The class given is functional.
Experiment [10] is filed under the species Gallus gallus. Nature of the experiment: Binding affinity to hen egg white lysozyme at 310 K.
For experiment [11], the system named is Staphylococcus aureus. Put plainly: Antibacterial activity against Staphylococcus aureus. The class given is functional.
Experiment [12] is filed under the species Gallus gallus. Nature of the experiment: Binding affinity to hen egg white lysozyme at 298 K.
The species named for experiment [13] is Gallus gallus. Nature of the experiment: Binding affinity to hen egg white lysozyme assessed as reduction in fluorescence intensity at 1 to 7 x 10^-6 M at 298 K.

With `CC(C)(CO)[C@@H](O)C(=O)NCCC(=O)O`, the values for the KSV in the experiment filed under Gallus gallus [1] and in the experiment filed under Gallus gallus [5] were 8.05 ×10⁴ L/mol and 1.04 ×10⁵ L/mol, respectively. Also, the Kq in the experiment filed under Gallus gallus [2] was determined as 8.03 ×10¹² L/mol/s; in the experiment listed under Gallus gallus [3], 1.02 ×10¹³ L/mol/s; in the experiment filed under Gallus gallus [4] it was 5.27 ×10⁴ L/mol; in the experiment listed under Gallus gallus [6] it was 1.28 ×10⁵ L/mol.
Turning to `O=c1cc(-c2ccccc2)oc2cc(O)c(O)c(O)c12` [BAICALEIN], the K is 1.5 ×10⁸ Lmol in the experiment listed under Gallus gallus [7], 2.14 ×10⁵ L/mol in the experiment listed under Gallus gallus [10] and 3.39 ×10⁵ L/mol in the experiment filed under Gallus gallus [12]. Also, the KSV in the experiment listed under Gallus gallus [1] was 1.75 ×10⁵ L/mol; in the experiment listed under Gallus gallus [5], 2.02 ×10⁵ L/mol. Further, the result in the experiment listed under Gallus gallus [8] and in the experiment listed under Gallus gallus [13] was Active. Further, the Kq in the experiment listed under Gallus gallus [2] worked out at 1.75 ×10¹³ L/mol/s; in the experiment listed under Gallus gallus [3], 2.02 ×10¹³ L/mol/s; in the experiment filed under Gallus gallus [4] it was 1.68 ×10⁵ L/mol; in the experiment listed under Gallus gallus [6] it was 1.77 ×10⁵ L/mol. Besides, the MIC50 in the experiment on Staphylococcus aureus [9] was 350 µg/mL; in the experiment with Staphylococcus aureus [11] it was 550 µg/mL (≈ 2040 µM).
On to `O=C(O)[C@H]1O[C@@H](Oc2cc3oc(-c4ccccc4)cc(=O)c3c(O)c2O)[C@H](O)[C@@H](O)[C@@H]1O` [BAICALIN], for which the figures for the K in the experiment listed under Gallus gallus [7], in the experiment listed under Gallus gallus [10] and in the experiment listed under Gallus gallus [12] were 1.17 ×10⁶ Lmol, 1.02 ×10⁵ L/mol and 2.95 ×10⁴ L/mol, respectively. Also, the KSV came to 1.14 ×10⁵ L/mol in the experiment filed under Gallus gallus [1] and 1.25 ×10⁵ L/mol in the experiment filed under Gallus gallus [5]. In addition, the outcome in the experiment filed under Gallus gallus [8] and in the experiment listed under Gallus gallus [13] was Active. The Kq in the experiment filed under Gallus gallus [2] was determined as 1.14 ×10¹³ L/mol/s; in the experiment filed under Gallus gallus [3], 1.25 ×10¹³ L/mol/s; in the experiment listed under Gallus gallus [4], 1.16 ×10⁵ L/mol; in the experiment listed under Gallus gallus [6], 1.74 ×10⁵ L/mol. Moreover, the MIC50 in the experiment with Staphylococcus aureus [9] turned out to be 350 µg/mL; with Staphylococcus aureus [11], 450 µg/mL (≈ 1010 µM).
As for `O=C(O)[C@H]1O[C@@H](Oc2cc3oc(-c4ccc(O)cc4)cc(=O)c3c(O)c2O)[C@H](O)[C@@H](O)[C@@H]1O` [SCUTELLARIN], the K in the experiment listed under Gallus gallus [7] was determined as 2.24 ×10⁶ Lmol; in the experiment listed under Gallus gallus [10], 3.98 ×10⁵ L/mol; in the experiment filed under Gallus gallus [12], 7.76 ×10⁵ L/mol. Besides, the values for the KSV in the experiment filed under Gallus gallus [1] and in the experiment filed under Gallus gallus [5] were 1.55 ×10⁵ L/mol and 1.63 ×10⁵ L/mol, respectively. The outcome in the experiment filed under Gallus gallus [8] and in the experiment listed under Gallus gallus [13] was Active. Also, the Kq in the experiment filed under Gallus gallus [2] worked out at 1.55 ×10¹³ L/mol/s; in the experiment listed under Gallus gallus [3], 1.63 ×10¹³ L/mol/s; in the experiment filed under Gallus gallus [4] it was 1.15 ×10⁵ L/mol; in the experiment listed under Gallus gallus [6], 1.25 ×10⁵ L/mol. Further, the MIC50 in the experiment on Staphylococcus aureus [9] was found to be 500 µg/mL; in the experiment on Staphylococcus aureus [11] it was 650 µg/mL (≈ 1410 µM).
